Test system: 485176-168-R4-J1-PDC spheroids with HUVEC/MSC, viability
Test: Anticancer human tumor 485176-168-R4-J1-PDC patient-derived pancreatic adenocarcinoma cell line growth inhibition [GQUAD]
Conditions: for IC50: curve of first compound; for viability, T/C: stronger effect = lower value
From the text: DNA G-quadruplex Stabilizer Agents in Combinations in Complex Spheroids
A high-throughput screen of multi-cell type tumor spheroids was designed to identify active combinations of DNA G-quadruplex stabilizer agents and targeted small molecules. Complex spheroids include a stromal component modeled by human endothelial cells (HUVEC) and fibroblasts modeled by human mesenchymal stem cells (MSCs). The concentration ranges selected for each drug and investigational agent were based upon clinically achievable concentrations if the clinical Cmax of the agent was known.
Compounds. The drugs and investigational agents: pidnarulex (CX-5461; NSC782164), APTO-253 (NSC789042), BRACO-19 (NSC847499), peposertib (NSC802822), ceralasertib (NSC780249), elimusertib (NSC800525), camonsertib (NSC841442), AZD-1390 (NSC803789), olaparib (NSC753686), talazoparib (NSC767125), ART-558 (NSC835418), sotorasib (NSC818433), MRTX-1133 (NSC836407), SN-38 (NSC673596), topotecan (NSC609699), etoposide (NSC141540), doxorubicin (NSC123127), gemcitabine (NSC613327), 5-fluorouracil (NSC19893), paclitaxel (NSC125973), vemurafenib (NSC761431), panobinostat (NSC761190), R-306465 (JNJ-16241199; NSC773264), adavosertib (NSC754352), TP-3654 (NSC805149), carboplatin (NSC241240), KSQ-4279 (NSC840948), and staurosporine (NSC755774) were obtained from the National Cancer Institute (NCI) Developmental Therapeutics Program Chemical Repository (34). The FDA-approved anticancer drug set is available from the NCI Developmental Therapeutics Program. […] The stock solutions were prepared in dimethyl sulfoxide (DMSO, Sigma-Aldrich, St. Louis, MO, cat. D2650) at 800-fold the tested concentration and stored at -70 degrees C prior to their use. All drugs and investigational agents were tested over a range starting from a high concentration at or near the clinical Cmax and decreasing in half-log increments. If the clinical Cmax for an agent had not been determined, the highest concentration tested was 10 microM.
2.3 Cell Culture. All cells were maintained in an incubator at 37 degrees C and 5% CO2 with 95% humidity. The PDC lines were cultured according to standard operating procedures established by the NCI PDMR. All PDCs were thawed and cultured in Matrigel-coated flasks prepared with a working solution of 1X Ham's F-12 nutrient mix, without supplementation (Invitrogen, cat. 11765054), 100 U/mL penicillin-streptomycin (Invitrogen, cat. 15140122), and 2.5% Matrigel (Corning Inc., cat. 354248) for the first three passages. The 857933-349-R-J2-PDC line was cultured in 6C/Colon 1B media, which includes advanced DMEM/F-12 (Thermo Fisher Scientific, cat. 12634028), 10 mM HEPES (Thermo Fisher Scientific, cat. 15630080), 1X GlutaMAX supplement (Thermo Fisher Scientific, cat. 35050061), 0.1 mg/mL primocin (InvivoGen, cat. ant-pm-2), 10% defined fetal bovine serum, heat inactivated (HyClone Laboratories Inc., cat. SH30070.03HI), 50% L-WRN conditioned media (ATCC, cat. CRL-3276), 1.25 mM N-Acetyl-L-cysteine (Sigma-Aldrich, cat. A9165), 10 mM nicotinamide (Sigma-Aldrich, cat. N0636), 1X B-27 supplement (Thermo Fisher Scientific, cat. 17504044), 1X N-2 supplement (Thermo Fisher Scientific, cat. 17502048), 10 microM Y-27632 dihydrochloride (Tocris Bioscience, cat. 1254), and 50 ng/mL human EGF recombinant protein (Thermo Fisher Scientific, cat. PHG0311). The 485176-168-R4-J1-PDC line was cultured in Panc media, which includes all 6C/Colon 1B media components plus 100 ng/mL human FGF-10 (Thermo Fisher Scientific, cat. 100-26), 500 nM SB-431542 (Selleckchem, cat. S1067), and gastrin (Tocris, cat. 3006).
[…]

[1] = second compound 0.0316 µM, first compound 0.0316 µM
[2] = second compound 0.0316 µM, first compound 0.1 µM
[3] = second compound 0.0316 µM, first compound 0.316 µM
[4] = second compound 0.0316 µM, first compound 1 µM
[5] = second compound 0.0316 µM, first compound 3.16 µM
[6] = second compound 0.0316 µM, first compound 10 µM
[7] = second compound 0.1 µM, first compound 0.0316 µM
[8] = second compound 0.1 µM, first compound 0.1 µM
[9] = second compound 0.1 µM, first compound 0.316 µM
[10] = second compound 0.1 µM, first compound 1 µM
[11] = second compound 0.1 µM, first compound 3.16 µM
[12] = second compound 0.1 µM, first compound 10 µM
[13] = second compound 0.316 µM, first compound 0.0316 µM
[14] = second compound 0.316 µM, first compound 0.1 µM
[15] = second compound 0.316 µM, first compound 0.316 µM
[16] = second compound 0.316 µM, first compound 1 µM
[17] = second compound 0.316 µM, first compound 3.16 µM
[18] = second compound 0.316 µM, first compound 10 µM
[19] = second compound 1 µM, first compound 0.0316 µM
[20] = second compound 1 µM, first compound 0.1 µM
[21] = second compound 1 µM, first compound 0.316 µM
[22] = second compound 1 µM, first compound 1 µM
[23] = second compound 1 µM, first compound 3.16 µM
[24] = second compound 1 µM, first compound 10 µM
[25] = second compound 3.16 µM, first compound 0.0316 µM
[26] = second compound 3.16 µM, first compound 0.1 µM
[27] = second compound 3.16 µM, first compound 0.316 µM
[28] = second compound 3.16 µM, first compound 1 µM
[29] = second compound 3.16 µM, first compound 3.16 µM
[30] = second compound 3.16 µM, first compound 10 µM
[31] = second compound 10 µM, first compound 0.0316 µM
[32] = second compound 10 µM, first compound 0.1 µM
[33] = second compound 10 µM, first compound 0.316 µM
[34] = second compound 10 µM, first compound 1 µM
[35] = second compound 10 µM, first compound 3.16 µM
[36] = second compound 10 µM, first compound 10 µM
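Note: spheroids exposed to compounds for seven days before readout.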
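Throughout, for viability, T/C: percent viability relative to DMSO vehicle control wells as 100%.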

`COc1ccc([C@@H](O)c2cc(-c3ncnc4cc(N5CCOCC5)ccc34)c(F)cc2Cl)nn1` + CN(C)c1ccc(Nc2c3ccc(NC(=O)CCN4CCCC4)cc3nc3cc(NC(=O)CCN4CCCC4)ccc23)cc1 showed an IC50 (second compound 0.0316 µM) of 5.71 µM, an IC50 (second compound 0.1 µM) of 4.75 µM and an IC50 (second compound 0.316 µM) of 4.76 µM. For the same compound, the IC50 (second compound 1 µM) was 4.58 µM, the IC50 (second compound 3.16 µM) was 4.12 µM and the IC50 (second compound 10 µM) was 3.13 µM. It also gave a viability, T/C [1] of 97.4%, a viability, T/C [2] of 96.6% and a viability, T/C [3] of 96.1%. It also gave a viability, T/C [4] of 82.3%, a viability, T/C [5] of 70.9% and a viability, T/C [6] of 31.4%. The viability, T/C [7] was 97.6%, the viability, T/C [8] was 98.4% and the viability, T/C [9] was 89.1%. The viability, T/C [10] was 80.5%, the viability, T/C [11] was 60.6% and the viability, T/C [12] was 30.7%. For the same compound, the viability, T/C [13] was 87%, the viability, T/C [14] was 92.2% and the viability, T/C [15] was 109%. For the same compound, the viability, T/C [16] was 75.6%, the viability, T/C [17] was 62.9% and the viability, T/C [18] was 30.6%. It also gave a viability, T/C [19] of 106%, a viability, T/C [20] of 91.8% and a viability, T/C [21] of 100%. It also gave a viability, T/C [22] of 84.1%, a viability, T/C [23] of 60.9% and a viability, T/C [24] of 27.1%. It also gave a viability, T/C [25] of 108%, a viability, T/C [26] of 107% and a viability, T/C [27] of 81.4%. For the same compound, the viability, T/C [28] was 74.9%, the viability, T/C [29] was 57.9% and the viability, T/C [30] was 31.8%. For the same compound, the viability, T/C [31] was 77.6%, the viability, T/C [32] was 87.5% and the viability, T/C [33] was 73.7%. For the same compound, the viability, T/C [34] was 61.9%, the viability, T/C [35] was 52.4% and the viability, T/C [36] was 23.8%.
Work on `O=C(c1cc(Cc2n[nH]c(=O)c3ccccc23)ccc1F)N1CCN(C(=O)C2CC2)CC1` + CN(C)c1ccc(Nc2c3ccc(NC(=O)CCN4CCCC4)cc3nc3cc(NC(=O)CCN4CCCC4)ccc23)cc1 yielded an IC50 (second compound 0.0316 µM) greater than 10 µM, an IC50 (second compound 0.1 µM) greater than 10 µM and an IC50 (second compound 0.316 µM) greater than 10 µM. It also gave an IC50 (second compound 1 µM) greater than 10 µM, an IC50 (second compound 3.16 µM) greater than 10 µM and an IC50 (second compound 10 µM) greater than 10 µM. The viability, T/C [1] was 90.6%, the viability, T/C [2] was 92.6% and the viability, T/C [3] was 103%. The viability, T/C [4] was 103%, the viability, T/C [5] was 111% and the viability, T/C [6] was 79.3%. The viability, T/C [7] was 96.3%, the viability, T/C [8] was 98.7% and the viability, T/C [9] was 102%. The viability, T/C [10] was 91.2%, the viability, T/C [11] was 86.5% and the viability, T/C [12] was 72.5%. The viability, T/C [13] was 84.7%, the viability, T/C [14] was 90.8% and the viability, T/C [15] was 91.2%. For the same compound, the viability, T/C [16] was 95.3%, the viability, T/C [17] was 105% and the viability, T/C [18] was 81.5%. The viability, T/C [19] was 107%, the viability, T/C [20] was 91.5% and the viability, T/C [21] was 90%. It also gave a viability, T/C [22] of 86.4%, a viability, T/C [23] of 89.4% and a viability, T/C [24] of 73.6%. It also gave a viability, T/C [25] of 96.9%, a viability, T/C [26] of 93.7% and a viability, T/C [27] of 89.9%. For the same compound, the viability, T/C [28] was 90.8%, the viability, T/C [29] was 95.4% and the viability, T/C [30] was 68.4%. The viability, T/C [31] was 94.7%, the viability, T/C [32] was 89.9% and the viability, T/C [33] was 77.4%. It also gave a viability, T/C [34] of 85.8%, a viability, T/C [35] of 84.7% and a viability, T/C [36] of 59.7%.
